Reference: patent EP1832585A1, “Thiazole-piperidine derivatives for treatment of hyperproliferative diseases” (Oridis Biomed Forschungs- und Entwicklungs GmbH, priority 2006, dated 2007)

Key:
Type in all cases: cell-based
HuH7 = assay: Proliferation assay (CellTiter-Glo luminescent cell viability assay), HuH7; conditions: Huh-7; human hepatoma HuH7; 48 hours incubation; 10% (v/v) FCS; compounds 0 to 20 µM; read-out: EC50 (effective concentration reducing cell proliferation by 50%), inhibition of HuH7 proliferation
Protocol: (§1) The assay is based on the relation that the ATP content is directly proportional to the number of cells present in the culture. The CellTiter-Glo® assay is performed to measure the proliferation rate of human hepatoma (HuH7, PLC/PRF/5, Hep3B, SK-Hep1), human hepatoblastoma (HepG2), human colon carcinoma (CX-2), human breast cancer (SK-Br-3), human […] (HeLa) and human pancreatic carcinoma (DAN-G) cell lines (see Example 2). […] Further, HepG2 and Hep3B are inhibited with an EC50 of 0.9 and 0.3 µM, respectively.
To determine the inhibition of cell proliferation a luminescent cell viability assay (CellTiter-Glo®; Promega, Madison, USA) is implemented. The assay is based on the relation that the ATP content is directly proportional to the number of cells present in the culture, see Technical Bulletin No. 228 "CellTiter-Glo® Luminescent Cell viability Assay", Revised 2/04. Promeg, Madison, USA. The CellTiter-Glo® assay is performed to measure the proliferation rate of human hepatoma (HuH7, PLC/PRF/5, Hep3B, SK-Hep1), human hepatoblastoma (HepG2), human colon carcinoma (CX-2), human breast cancer (SK-Br-3), human […] (HeLa) and human pancreatic carcinoma (DAN-G) cell lines. 3000 viable cells (viability ≥ 90%) are seeded in opaque-walled 96-well plates and incubated for 24 hours in DMEM, supplemented with 2 mM glutamin. Cell proliferation is stimulated by addition of FCS to a final concentration of 10% (v/v). Simultaneously the compounds I to XVII (see Table 1 A to 1D and 2) are added in a concentration range of 0 to 20 µM. Triplicates are measured for each concentration. Cells and compounds (see Table 1 A to 1D, and 2) are incubated for a period of 48 hours in a volume of 140 µl cell culture medium (10% (v/v) FCS, 2 mM Glutamin, DMEM). The compounds are solved in 60% to 100% (v/v) DMSO at a concentration of 2 mM. The final DMSO concentration under assay conditions never exceeded 1% (v/v). Throughout the assay cells are kept in a humidified incubator (95% rH) at 37°C and 5% CO2. The final cell number is determined after 48 hour of incubation. Therefore 140 µl CellTiter-Glo®Reagent is added in each well. The contents are mixed on an orbital shaker for 2 minutes at room temperature. After subsequent incubation for additional 10 minutes at room temperature the luminescence signal was recorded within 30 min. EC50 values are calculated using the four-parametric Hill equation (Sigma Plot).
Control values are: (1) 10% (v/v) FCS, 2 mM Glutamin, DMEM -> maximum cell number and (2) 2 mM Glutamin, DMEM -> initial cell number.

HepG2 = assay: Proliferation assay (CellTiter-Glo luminescent cell viability assay), HepG2; conditions: human hepatoblastoma HepG2; 48 hours incubation; 10% (v/v) FCS; read-out: EC50, inhibition of HepG2 proliferation
Protocol: as §1
(§2) To determine the inhibition of cell proliferation a luminescent cell viability assay (CellTiter-Glo®; Promega, Madison, USA) is implemented. The assay is based on the relation that the ATP content is directly proportional to the number of cells present in the culture, see Technical Bulletin No. 228 "CellTiter-Glo® Luminescent Cell viability Assay", Revised 2/04. Promeg, Madison, USA. […] Triplicates are measured for each concentration. […] The final cell number is determined after 48 hour of incubation. […] After subsequent incubation for additional 10 minutes at room temperature the luminescence signal was recorded within 30 min. EC50 values are calculated using the four-parametric Hill equation (Sigma Plot). […]

Hep3B = assay: Proliferation assay (CellTiter-Glo luminescent cell viability assay), Hep3B; conditions: human hepatoma Hep3B; 48 hours incubation; 10% (v/v) FCS; read-out: EC50, inhibition of Hep3B proliferation
Protocol: as §1, §2

DAN-G = assay: Proliferation assay (CellTiter-Glo luminescent cell viability assay), DAN-G; conditions: human pancreatic carcinoma DAN-G; 48 hours incubation; 10% (v/v) FCS; read-out: EC50 (effective concentration reducing cell proliferation by 50%), inhibition of DAN-G proliferation
Protocol: as §1, §2

CX-2 = assay: Proliferation assay (CellTiter-Glo luminescent cell viability assay), CX-2; conditions: human colon carcinoma CX-2; 48 hours incubation; 10% (v/v) FCS; read-out: EC50 (effective concentration reducing cell proliferation by 50%), inhibition of CX-2 proliferation
Protocol: as §1, §2

HeLa = assay: Proliferation assay (CellTiter-Glo luminescent cell viability assay), HeLa; conditions: HeLa (printed as human ovarian carcinoma); 48 hours incubation; 10% (v/v) FCS; read-out: EC50 (effective concentration reducing cell proliferation by 50%), inhibition of HeLa proliferation
Protocol: as §1, §2

Sk-Br-3 = assay: Proliferation assay (CellTiter-Glo luminescent cell viability assay), SK-Br-3; conditions: human breast cancer SK-Br-3; 48 hours incubation; 10% (v/v) FCS; read-out: EC50 (effective concentration reducing cell proliferation by 50%), inhibition of SK-Br-3 proliferation
Protocol: as §1, §2

For O=C(/C=C/c1ccc2c(c1)OCO2)N1CCC(c2nc(-c3ccc4c(c3)OCCO4)cs2)CC1 [Compound I, E-3-{4-[4-(3,4-ethylendioxphenyl)-thiazol-2-yl]-piperidin-1-yl}-1-(3,4-methylendioxyphenyl)-3-oxo-prop-1-ene], which EC50 (HuH7) is on record?
The EC50 was 0.33 µM.

And the EC50 (HepG2)?
Its EC50 is 0.9 µM.

What about the EC50 (Hep3B) of the same compound?
Its EC50 is 0.3 µM.

What about the EC50 (DAN-G) of the same compound?
Its EC50 is 4.69 µM.

What about the EC50 (CX-2) of the same compound?
The EC50 was 19.1 µM.

What about the EC50 (HeLa) of the same compound?
Its EC50 is 14.8 µM.

What about the EC50 (Sk-Br-3) of the same compound?
The EC50 was 10.8 µM.

With CCOC(=O)c1cc(-c2csc(C3CCN(C(=O)C(Cc4ccccc4F)NC(C)=O)CC3)n2)on1 (stereo not drawn) [III] as the compound, how does the EC50 (HuH7) read?
Its EC50 is 1.61 µM.

How did the EC50 (HuH7) turn out when CCOC(=O)c1cc(-c2csc(C3CCN(C(=O)/C(C)=C/c4cc(OC)c(OC)cc4OC)CC3)n2)on1 [II] was run?
The EC50 was 12.4 µM.

With COC(=O)C(NC(=O)N1CCC(c2nc(-c3ccc4c(c3)OCCO4)cs2)CC1)C(C)C (stereo not drawn) [IV] as the compound, how does the EC50 (HuH7) read?
Its EC50 is 5.02 µM.

O=C(C1COc2ccccc2O1)N1CCC(c2nc(-c3ccc4c(c3)OCCO4)cs2)CC1 (stereo not drawn) [IX] was tested. Which EC50 (HuH7) did it give?
Its EC50 is 3.93 µM.

How did the EC50 (HuH7) turn out when CCOC(=O)CNC(=O)N1CCC(c2nc(-c3cccc(Br)c3)cs2)CC1 [VIII] was run?
The EC50 was 1.89 µM.

Which EC50 (HuH7) does the source give for O=C(c1cccnc1OCC(F)(F)F)N1CCC(c2nc(-c3ccc4c(c3)OCCO4)cs2)CC1 [VII] here?
Its EC50 is 6.2 µM.

Which EC50 (HuH7) does the source give for CCOC(=O)c1cc(-c2csc(C3CCN(C(=O)/C=C/c4ccc5c(c4)OCO5)CC3)n2)on1 [VI] here?
The EC50 was 20.7 µM.

What does the source list for Cc1nn(C)c(Cl)c1/C=C/C(=O)N1CCC(c2nc(-c3ccc4c(c3)OCCO4)cs2)CC1 [V]?
EC50 (HuH7): 10.7 µM; EC50 (DAN-G): 11.1 µM; EC50 (CX-2): > 20 µM; EC50 (HeLa): 18.7 µM; EC50 (Sk-Br-3): > 20 µM

For O=C(c1csc(-c2cnccn2)n1)N1CCC(c2nc(-c3ccc4c(c3)OCCO4)cs2)CC1 [XIII], which EC50 (HuH7) is on record?
Its EC50 is 6 µM.

For CCN(CC)c1ccc(-c2csc(C3CCN(Cc4ccc(N(CCC#N)CCC#N)cc4)CC3)n2)cc1 [XII], which EC50 (HuH7) is on record?
The EC50 was 5.76 µM.

For O=C1CC(C(=O)N2CCC(c3nc(-c4ccc5c(c4)OCCO5)cs3)CC2)CN1Cc1cccs1 (stereo not drawn) [XIV], which EC50 (HuH7) is on record?
The EC50 was 29 µM.

O=C(c1ccccc1C[S+]([O-])c1ccccc1)N1CCC(c2nc(-c3ccc4c(c3)OCCO4)cs2)CC1 (stereo not drawn) [XI] was tested. Which EC50 (HuH7) did it give?
The EC50 was 3.35 µM.

How did the EC50 (HuH7) turn out when CCOC(=O)/C=C/C(=O)N1CCC(c2nc(-c3ccc(Cl)c([N+](=O)[O-])c3)cs2)CC1 [XVII] was run?
Its EC50 is 0.63 µM.

For O=C(C1N=Nc2ccccc21)N1CCC(c2nc(-c3ccc4c(c3)OCCO4)cs2)CC1 (stereo not drawn) [XVI], which EC50 (HuH7) is on record?
The EC50 was 24.9 µM.

For Cc1cc(Cl)ccc1NC(=O)COCC(=O)N1CCC(c2nc(-c3ccc4c(c3)OCCO4)cs2)CC1 [XV], which EC50 (HuH7) is on record?
The EC50 was 4.94 µM.

For O=C(CCCc1nc2ccccc2[nH]1)N1CCC(c2nc(-c3cccc(Br)c3)cs2)CC1 [X], which EC50 (HuH7) is on record?
The EC50 was 1.93 µM.
